Experimental data published in PubChem BioAssay (NCI).
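These data come from cells grown in 96-well plates and exposed to compound for 48 hours at five concentrations. TGI marks complete inhibition of growth.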

Experiments:
Test in all cases: growth of human tumour cells (NCI), 48 h
NCI-H226 lung = tested on: NCI-H226 lung
UACC-62 melanoma = tested on: UACC-62 melanoma
COLO 205 colon = tested on: COLO 205 colon
NCI-H460 lung = tested on: NCI-H460 lung
HS 578T breast = tested on: HS 578T breast
SR leukemia = tested on: SR leukemia
MDA-MB-231 breast = tested on: MDA-MB-231 breast
CAKI-1 renal = tested on: CAKI-1 renal
HCC-2998 colon = tested on: HCC-2998 colon
SK-MEL-28 melanoma = tested on: SK-MEL-28 melanoma

## Cc1ccc(O)c(-c2cc(-c3cccc(Cl)c3)c(C#N)c(N)n2)c1
NCI-H226 lung
  TGI: 55.4 µM
UACC-62 melanoma
  TGI: 35.9 µM
COLO 205 colon
  TGI: 32.3 µM
NCI-H460 lung
  TGI: 54 µM
HS 578T breast
  TGI: 49.7 µM
SR leukemia
  TGI: 30.3 µM
MDA-MB-231 breast
  TGI: 54.4 µM
CAKI-1 renal
  TGI: > 100 µM

## O=c1[nH]c(Nc2cc(Cl)cc(Cl)c2)nc2nc[nH]c12
NCI-H226 lung
  TGI: > 75 µM
HCC-2998 colon
  TGI: > 75 µM
UACC-62 melanoma
  TGI: > 75 µM
COLO 205 colon
  TGI: > 75 µM
NCI-H460 lung
  TGI: > 75 µM
HS 578T breast
  TGI: 68.5 µM
MDA-MB-231 breast
  TGI: > 75 µM
CAKI-1 renal
  TGI: > 75 µM

## c1ccc2c(c1)ncn2C1CCCCO1 (configuration not stated)
SK-MEL-28 melanoma
  TGI: > 100 µM
NCI-H226 lung
  TGI: > 100 µM
HCC-2998 colon
  TGI: > 100 µM
UACC-62 melanoma
  TGI: > 100 µM
COLO 205 colon
  TGI: > 100 µM
HS 578T breast
  TGI: > 100 µM
SR leukemia
  TGI: > 100 µM
MDA-MB-231 breast
  TGI: > 100 µM

## CCOc1ccc(/C=N/[N+](C)(C)C)cc1OCC
SK-MEL-28 melanoma
  TGI: > 10 µM
HCC-2998 colon
  TGI: > 10 µM
UACC-62 melanoma
  TGI: > 10 µM
COLO 205 colon
  TGI: > 10 µM
HS 578T breast
  TGI: > 10 µM
SR leukemia
  TGI: > 10 µM
MDA-MB-231 breast
  TGI: > 10 µM
CAKI-1 renal
  TGI: > 10 µM

## COCOc1c(C(O[Si](C)(C)C(C)(C)C)c2cnc(Sc3ccccc3)n2C)ccc(OC)c1OC (configuration not stated)
SK-MEL-28 melanoma
  TGI: 4.18 µM
NCI-H226 lung
  TGI: 4.14 µM
HCC-2998 colon
  TGI: 3.7 µM
UACC-62 melanoma
  TGI: 3.91 µM
NCI-H460 lung
  TGI: 3.02 µM
HS 578T breast
  TGI: 6.17 µM
SR leukemia
  TGI: 7.74 µM
MDA-MB-231 breast
  TGI: 3.19 µM
CAKI-1 renal
  TGI: 10.1 µM

## Cc1cccnc1/N=C/c1c(O)n(C)c(=O)[nH]c1=O
SK-MEL-28 melanoma
  TGI: > 100 µM
NCI-H226 lung
  TGI: > 100 µM
UACC-62 melanoma
  TGI: > 100 µM
COLO 205 colon
  TGI: > 100 µM
NCI-H460 lung
  TGI: > 100 µM
HS 578T breast
  TGI: > 100 µM
CAKI-1 renal
  TGI: > 100 µM

## CSCCCNC(=O)c1csc(-c2csc(C(CNC(=O)OC(C)(C)C)CNC(=O)OC(C)(C)C)n2)n1
NCI-H226 lung
  TGI: > 100 µM
UACC-62 melanoma
  TGI: 40.4 µM
COLO 205 colon
  TGI: > 100 µM
NCI-H460 lung
  TGI: > 100 µM
HS 578T breast
  TGI: > 100 µM
SR leukemia
  TGI: 70.1 µM
MDA-MB-231 breast
  TGI: > 100 µM
CAKI-1 renal
  TGI: > 100 µM

## Nc1nc(N)c2ncn(Cc3ccccc3CCl)c2n1
SK-MEL-28 melanoma
  TGI: > 100 µM
NCI-H226 lung
  TGI: > 100 µM
UACC-62 melanoma
  TGI: > 100 µM
COLO 205 colon
  TGI: > 100 µM
NCI-H460 lung
  TGI: > 100 µM
HS 578T breast
  TGI: > 100 µM
SR leukemia
  TGI: > 100 µM
MDA-MB-231 breast
  TGI: > 100 µM
CAKI-1 renal
  TGI: > 100 µM

## CCCCCCCCCCCCOP(=O)(O)OCC(N)C(=O)O (configuration not stated)
SK-MEL-28 melanoma
  TGI: > 100 µM
NCI-H226 lung
  TGI: > 100 µM
HCC-2998 colon
  TGI: > 100 µM
COLO 205 colon
  TGI: > 100 µM
NCI-H460 lung
  TGI: 43.2 µM
HS 578T breast
  TGI: 33.3 µM
SR leukemia
  TGI: 90 µM
MDA-MB-231 breast
  TGI: 58 µM
CAKI-1 renal
  TGI: 95.8 µM

## N=c1c2c(-c3ccccc3)c[nH]c2ncn1N
SK-MEL-28 melanoma
  TGI: > 100 µM
NCI-H226 lung
  TGI: > 100 µM
HCC-2998 colon
  TGI: > 100 µM
UACC-62 melanoma
  TGI: > 100 µM
COLO 205 colon
  TGI: > 100 µM
MDA-MB-231 breast
  TGI: > 100 µM
CAKI-1 renal
  TGI: > 100 µM

## CCCCNC(=S)Nc1nc(C(=O)NNC(=S)NC2CCCCC2)cs1
NCI-H226 lung
  TGI: > 100 µM
HCC-2998 colon
  TGI: > 100 µM
UACC-62 melanoma
  TGI: > 100 µM
COLO 205 colon
  TGI: > 100 µM
SR leukemia
  TGI: 35.4 µM
MDA-MB-231 breast
  TGI: > 100 µM
CAKI-1 renal
  TGI: > 100 µM

## COC(=O)c1ccc(C)cc1/C=C1\Cc2ccc(C)cc2C1=O
SK-MEL-28 melanoma
  TGI: 34.6 µM
NCI-H226 lung
  TGI: 24.9 µM
HCC-2998 colon
  TGI: 38.4 µM
UACC-62 melanoma
  TGI: 26.7 µM
COLO 205 colon
  TGI: 25.1 µM
NCI-H460 lung
  TGI: > 100 µM
HS 578T breast
  TGI: 59.4 µM
SR leukemia
  TGI: 9.13 µM
CAKI-1 renal
  TGI: 94.3 µM
